US4670431A, “Beta-lactam antibacterial agents” (Beecham Group p.l.c., priority 1983, dated 1987)
≈ marks a conversion by molar mass, not a printed value. Where a name gives a salt, the structure may show the parent alone.

These molecules were tested on P. mirabilis 889 (assay: MIC against P. mirabilis 889). Conditions: not given.
Type: cell-based, Proteus mirabilis
Description: The antibiotic compounds of the present invention are active against a wide range of gram negative and gram positive organisms including E. coli such as, for example ESS, JT4, JT425 and NCTC 10418; Pseudomonas Spp. such Ps.aeruginosa for example 10662 and Dalgleish; Serratia marcescens US32; Klebsiella aerogenes A; Enterobacter cloacae N1; P.mirabilis such as, for example C977 and 889; P.morganii, P.rettgeri; B.subtilis; Staph aureus such as, for example Oxford and Russell; N.catarrhalis 1502; Strep faecalis I; β-Haemolytic Strep CN10. The MIC data included in the following examples is representative of the activity of the compounds of the present invention.

In order of rising “MIC against P. mirabilis 889” value:
1. CCN1CCN(C(=O)N[C@@H](C(=O)N[C@]2(NC=O)C(=O)N3C(C(=O)O)=C(COC(C)=O)C[S+]([O-])[C@@H]32)c2ccccc2)C(=O)C1=O (single isomer, unassigned) [Example 3 Isomer B, Sodium 7β-[D-2-[(4-Ethyl-2,3-dioxopiperazin-1-yl)carbonylamino]-2-phenylacetamido]-7α-formamidocephalosporanate-1-oxide]  0.25 µg/mL
2. CCN1CCN(C(=O)N[C@@H](C(=O)N[C@]2(NC=O)C(=O)N3C(C(=O)O)=C(COC(C)=O)C[S+]([O-])[C@@H]32)c2ccc(OC(C)=O)c(OC(C)=O)c2)C(=O)C1=O (single isomer, unassigned) [Example 1 Isomer A, Sodium 7β-[D-2-[(4-ethyl-2,3-dioxopiperazin-1-yl)carbonylamino]-2-(3,4-diacetoxyphenyl)acetamido]-7α-formamidocephalosporanate-1-oxide]  0.5 µg/mL
3. CCN1CCN(C(=O)N[C@@H](C(=O)N[C@]2(NC=O)C(=O)N3[C@@H](C(=O)O)C(C)(C)[S+]([O-])[C@@H]32)c2ccc(OC(C)=O)c(OC(C)=O)c2)C(=O)C1=O (single isomer, unassigned; isomer a) [Example 17, Sodium 6β-[D-2-[(4-ethyl-2,3-dioxopiperazin-1-yl)carbonylamino]-2-(3,4-diacetoxyphenyl)acetamido]-6α-formamidopenicillanate-1-oxide, Isomer A]  4.0 µg/mL

With `CCN1CCN(C(=O)N[C@@H](C(=O)N[C@]2(NC=O)C(=O)N3C(C(=O)O)=C(COC(C)=O)C[S+]([O-])[C@@H]32)c2ccc(OC(C)=O)c(OC(C)=O)c2)C(=O)C1=O` (single isomer, unassigned) [Example 1 Isomer B, Sodium 7β-[D-2-[(4-ethyl-2,3-dioxopiperazin-1-yl)carbonylamino]-2-(3,4-diacetoxyphenyl)acetamido]-7α-formamidocephalosporanate-1-oxide] the “MIC against P. mirabilis 889” value was less than 0.06 µg/mL.

Same assay, conditions: Proteus mirabilis, 889

In order of rising MIC:
1. CCN1CCN(C(=O)N[C@@H](C(=O)N[C@]2(NC=O)C(=O)N3C(C(=O)O)=C(COC(C)=O)C[S@@+]([O-])[C@@H]32)c2ccc(O)cc2)C(=O)C1=O (single isomer, unassigned) [Example 14 Isomer B, 7β-[D-2-[(4-Ethyl-2,3-dioxopiperazin-1-yl)carbonylamino]-2-(4-hydroxyphenyl)acetamido]-7α-formamidocephalosporanic acid 1-oxide, sodium salt]  0.12 µg/mL
2. CCN1CCN(C(=O)N[C@@H](C(=O)N[C@]2(NC=O)C(=O)N3C(C(=O)O)=C(CSc4nnnn4C)CS[C@@H]32)c2ccccc2)C(=O)C1=O [Example 8(b), 7β-[D-2-[(4-Ethyl-2,3-dioxopiperazin-1-yl)carbonylamino]-2-phenylacetamido]-7α-formamido-3-[(1-methyl-1H-tetrazol-5-yl)thiomethyl]ceph-3-em-4-carboxylic acid, sodium salt]  0.125 µg/mL
3. CCN1CCN(C(=O)N[C@@H](C(=O)N[C@]2(NC=O)C(=O)N3C(C(=O)O)=C(CSc4nnnn4C)C[S@@+]([O-])[C@@H]32)c2ccccc2)C(=O)C1=O [Example 8(d), Sodium 7β-[D-2-[(4-Ethyl-2,3-dioxopiperazin-1-yl)carbonylamino]-2-phenylacetamido]-7α-formamido-3-[(1-methyl-1H-tetrazol-5-yl)thiomethyl]ceph-3-em-4-carboxylate-1α-oxide]  0.25 µg/mL
4. CCN1CCN(C(=O)N[C@@H](C(=O)N[C@]2(NC=O)C(=O)N3C(C(=O)O)=C(COC(C)=O)C[S+]([O-])[C@@H]32)c2ccccc2)C(=O)C1=O (single isomer, unassigned) [Example 3 Isomer A, Sodium 7β-[D-2-[(4-Ethyl-2,3-dioxopiperazin-1-yl)carbonylamino]-2-phenylacetamido]-7α-formamidocephalosporanate-1-oxide]  0.25 µg/mL
5. CCN1CCN(C(=O)N[C@@H](C(=O)N[C@]2(NC=O)C(=O)N3C(C(=O)O)=C(COC(C)=O)C[S@+]([O-])[C@@H]32)c2ccc(O)cc2)C(=O)C1=O (single isomer, unassigned) [Example 14 Isomer A, 7β-[D-2-[(4-Ethyl-2,3-dioxopiperazin-1-yl)carbonylamino]-2-(4-hydroxyphenyl)acetamido]-7α-formamidocephalosporanic acid 1-oxide, sodium salt]  0.25 µg/mL
6. CCN1CCN(C(=O)N[C@@H](C(=O)N[C@]2(NC=O)C(=O)N3C(C(=O)O)=C(CSc4nnnn4CC(=O)O)C[S@@+]([O-])[C@@H]32)c2ccc(OC(C)=O)c(OC(C)=O)c2)C(=O)C1=O (single isomer, unassigned) [Example 15 Isomer B, 3-[(1-Carboxymethyl-1H-tetrazol-5-yl)thiomethyl]-7β-[D-2(3,4-diacetoxyphenyl)-2-[(4-ethyl-2,3-dioxopiperazin-1-yl)carbonylamino]acetamido]-7α-formamidoceph-3-em-4-carboxylic acid-1-oxide, disodium salt]  0.25 µg/mL
7. CCN1CCN(C(=O)N[C@@H](C(=O)N[C@]2(NC=O)C(=O)N3C(C(=O)O)=C(CSc4nnnn4C)C[S@+]([O-])[C@@H]32)c2ccccc2)C(=O)C1=O [Example 8(e), Sodium 7β-[D-2-[(4-Ethyl-2,3-dioxopiperazin-1-yl)carbonylamino]-2-phenylacetamido]-7α-formamido-3-[(1-methyl-1H-tetrazol-5-yl)thiomethyl]ceph-3-em-4-carboxylate-1β-oxide]  0.5 µg/mL
8. CCN1CCN(C(=O)N[C@@H](C(=O)N[C@]2(NC=O)C(=O)N3C(C(=O)O)=C(CSc4nnnn4CC(=O)O)C[S@+]([O-])[C@@H]32)c2ccc(OC(C)=O)c(OC(C)=O)c2)C(=O)C1=O (single isomer, unassigned) [Example 15 Isomer A, 3-[(1-Carboxymethyl-1H-tetrazol-5-yl)thiomethyl]-7β-[D-2(3,4-diacetoxyphenyl)-2-[(4-ethyl-2,3-dioxopiperazin-1-yl)carbonylamino]acetamido]-7α-formamidoceph-3-em-4-carboxylic acid-1-oxide, disodium salt]  0.5 µg/mL
9. CCN1CCN(C(=O)N[C@@H](C(=O)N[C@]2(NC=O)C(=O)N3[C@@H](C(=O)O)C(C)(C)[S+]([O-])[C@@H]32)c2ccccc2)C(=O)C1=O (single isomer, unassigned) [Example 22 Isomer B, Sodium 6β-[D-2-[(4-ethyl-2,3-dioxopiperazin-1-yl)carbonylamino]-2-phenylacetamido]-6α-formamidopenicillanate-1-oxide]  1 µg/mL
10. CCN1CCN(C(=O)N[C@@H](C(=O)N[C@]2(NC=O)C(=O)N3C(C(=O)O)=C(CSc4nnnn4C)C[S@+]([O-])[C@@H]32)c2ccc(O)c(O)c2)C(=O)C1=O [Example 16(d), Sodium 7β-[D-2-(3,4-dihydroxyphenyl)-2-[(4-ethyl-2,3-dioxopiperazin-1-yl)carbonylamino]acetamido]-7α-formamido-3-[(1-methyl-1H-tetrazol-5-yl)thiomethyl]-ceph-3-em-4-carboxylate-1β-oxide]  1 µg/mL
11. CCN1CCN(C(=O)N[C@@H](C(=O)N[C@]2(NC=O)C(=O)N3C(C(=O)O)=C(COC(C)=O)CS(=O)(=O)[C@@H]32)c2ccccc2)C(=O)C1=O [Example 2, Sodium 7β-[D,2-([4-Ethyl-2,3-dioxopiperazin-1-yl]carbonylamino)-2-phenylacetamido]-7α-formamidocephalosporanate-1,1-dioxide]  8 µg/mL
12. CCN1CCN(C(=O)N[C@@H](C(=O)N[C@]2(NC=O)C(=O)N3C(C(=O)[O-])=C(C[n+]4ccccc4)C[S+]([O-])[C@@H]32)c2ccccc2)C(=O)C1=O (stereo partly drawn) [Example 7, 7β-[D-2-[(4-Ethyl-2,3-dioxopiperazin-1-yl)carbonylamino]-2-phenylacetamido]-7α-formamido-3-pyridiniummethyl-ceph-3-em-4-carboxylate-1-oxide]  8 µg/mL (≈ 12.3 µM)
13. CC1(C)[C@H](C(=O)O)N2C(=O)[C@@](NC=O)(NC(=O)[C@H](N)c3ccccc3)[C@H]2[S+]1[O-] (single isomer, unassigned; isomer b) [Example 23, 6β-(D-2-Amino-2-phenylacetamido)-6α-formamidopenicillanic acid-1-oxide, isomer B]  32 µg/mL (≈ 78.3 µM)

Same assay, conditions: Proteus mirabilis, 889, broth

`NC(=O)OCC1=C(C(=O)O)N2C(=O)[C@@](NC=O)(NC(=O)Cc3cccs3)[C@H]2SC1` [Example 26(b), Sodium 3-carbamoyloxymethyl-7α-formamido-7β-thien-2-yletamido-ceph-3-em-4-carboxylate] was tested, and the MIC was 16 µg/mL.
